According to patent US20240287036A1, “COMPOUNDS USEFUL IN THE TREATMENT OR PREVENTION OF A PRMT5-MEDIATED DISORDER” (ARGONAUT THERAPEUTICS LIMITED, priority 2021, published 2024):

Experiments:
[1] = Hepatocyte stability assay (Human Hep Clint); format: in vitro ADME; conditions: cryopreserved pooled human hepatocytes, 0.5 × 10^6 cells/mL, 1 μM test compound, up to 90 min
Protocol: The activity of the compounds was tested using several industry accepted methods. These included methods to measure the human hepatocyte clearance values (Human Hep Clint) and a PRMT5 assay. The methods that were used were conventional.
Cell viability was tested by trypan blue exclusion after thawing.
Thawing Medium: Williams' Medium E containing 5% fetal bovine serum and 30% Percoll solution and other supplements.
Incubation Medium: Williams' Medium E (no phenol red) containing 2 mM L-Glutamine and 25 mM HEPES.
Stop Solution: Acetonitrile containing 200 ng/ml tolbutamide and labetalol as internal standards.
The following steps were performed. • 1. 10 mM test compounds were provided by Compound Sample Group. • 2. 30 mM positive control stock solutions: Dissolved accurate amount of positive control compounds in dimethyl sulfoxide (DMSO). • 3. 1000× Stock Solution: Diluted 10 mM test compounds and 30 mM positive control compounds to 1 mM and 3 mM with DMSO in 96-well plates. • 4. 100× Dosing Solution: Diluted 1 mM test compounds and 3 mM positive control compounds to 100 µM and 300 µM dosing solutions with ACN. • 5. Preparation of 0.5×10^6/mL cells suspension: cryopreserved cells were thawed, isolated and suspended in Incubation Medium, then diluted with pre-warmed Incubation Medium to 0.5×10^6 cells/mL. • 6. Add 198 μL of pre-warmed cell suspensions in 96-well plates. • 7. Preparation of Quenching Plate: Transfer 125 μL of stop solution (acetonitrile containing 200 ng/ml tolbutamide and 200 ng/ml labetalol as internal standards) in a set of pre-labelled 96-well plates. • 8. Spike 2 μL dosing solution to each well of 96-well plates in duplicates. • 9. For T0 Samples, mix to achieve a homogenous suspension for about 1 min, then immediately transfer 25 μL of each sample into well containing 125 μL of ice-cold stop solution followed by mixing. • 10. Incubate all plates at 37° ° C. in a 95% humidified incubator at 5% CO2 to start the reactions with constant shaking at about 600 rpm. • 11. At 15, 30, 60 and 90 min, mix samples and then transfer 25 μL of each sample at each time point to well containing 125 μL of ice-cold stop solution followed by mixing. • 12. Medium Control (MC) sample plates (labelled as T0-MC and T90-MC) are prepared at TO and T90 by adding the same components to each well except cell suspensions. • 13. At each corresponding time point, stop the reactions by removing the plates from incubator and mixing with 125 μL of ice-cold stop solution. • 14. Vortex the plates immediately on a plate shaker at 500 rpm for 10 minutes. Then, centrifuge all sample plates at 3220× g for 20 min at 4° C. • 15. After centrifugation, 80 μL/well of supernatant in the sample plates are transferred to another set of pre-labelled 96-well plates which containing 240 μL of ultra pure water according to the plate map. • 16. Analytical plates are sealed and store at 4° C. until LC-MS/MS analysis.
The remaining percents of test articles after incubation were calculated by the follow equations: […]
Use equation of first order kinetics to calculate t1/2 and CLint. Equation of first order kinetics:
[formula] [formula] CLint (hep)=k/million cells per mL
CLint (liver)=CLint (hep)·liver weight (g/kg body weight)*hepatocellularity

human PRMT5/MEP50 = molecular target: T1, human PRMT5/MEP50 (Homo sapiens, UniProt O14744); assay: PRMT5 chemiluminescent assay; format: biochemical; conditions: human PRMT5/MEP50 expressed in HEK293 cells, biotinylated histone peptides, 60 min reaction; read-out: PRMT5 pIC50 (converted)
T1 construct: host or cells: HEK293 cells
Protocol: A PRMT5 chemiluminescent assay was used to measure the IC50 activity of PRMT5 of the compounds of CEx and Examples 1 to 8 above. Biotinylated histone peptides were synthesized and attached to 384-well plates. Compound serial dilutions were performed and added to the assay plate. Histone H4 monomethyl R^3 antibody was obtained from Abcam. A master mix for each well was prepared and human PRMT5/MEP50 (expressed in HEK293 cells) diluted in assay buffer to a concentration of 5 ng/μL. The reaction was incubated and slowly rotated for 60 minutes at the point of PRMT5/MEP50 addition. The supernatant from the wells was removed and blocking buffer was added to each well and rotated for 10 minutes. The primary antibody was diluted and added to every well for 60 minutes, before it was removed and the wells washed. The horse radish peroxidase (HRP)-coupled secondary antibody was diluted and added to each well with an incubation time of 30 minutes. The HRP chemiluminescent substrate was added to every well. The plate was read on a Flourstar Omega BMG Labtech instrument (Ortenberg, Germany) and the analysis of IC50 was performed using the Flourstar Omega BMG Labtech software.

T1 sequence (O14744 whole entry): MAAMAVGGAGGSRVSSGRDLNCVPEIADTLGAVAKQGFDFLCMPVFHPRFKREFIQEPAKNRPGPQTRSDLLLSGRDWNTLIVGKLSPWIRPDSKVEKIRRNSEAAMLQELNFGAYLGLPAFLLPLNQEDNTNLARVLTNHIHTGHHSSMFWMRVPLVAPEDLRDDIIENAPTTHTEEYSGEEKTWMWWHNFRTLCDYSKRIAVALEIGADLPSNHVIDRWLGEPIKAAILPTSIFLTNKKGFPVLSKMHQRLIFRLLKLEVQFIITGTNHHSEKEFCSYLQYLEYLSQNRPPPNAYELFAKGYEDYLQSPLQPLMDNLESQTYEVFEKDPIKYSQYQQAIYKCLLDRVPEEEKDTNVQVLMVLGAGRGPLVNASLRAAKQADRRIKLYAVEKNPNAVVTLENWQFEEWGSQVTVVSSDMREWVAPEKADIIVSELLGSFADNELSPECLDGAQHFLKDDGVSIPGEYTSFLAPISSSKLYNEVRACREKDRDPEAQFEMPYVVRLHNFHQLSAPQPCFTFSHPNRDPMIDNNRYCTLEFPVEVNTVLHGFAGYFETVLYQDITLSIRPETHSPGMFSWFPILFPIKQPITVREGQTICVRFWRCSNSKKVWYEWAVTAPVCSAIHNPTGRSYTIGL
T1 sequence (Q9BQA1 whole entry partner): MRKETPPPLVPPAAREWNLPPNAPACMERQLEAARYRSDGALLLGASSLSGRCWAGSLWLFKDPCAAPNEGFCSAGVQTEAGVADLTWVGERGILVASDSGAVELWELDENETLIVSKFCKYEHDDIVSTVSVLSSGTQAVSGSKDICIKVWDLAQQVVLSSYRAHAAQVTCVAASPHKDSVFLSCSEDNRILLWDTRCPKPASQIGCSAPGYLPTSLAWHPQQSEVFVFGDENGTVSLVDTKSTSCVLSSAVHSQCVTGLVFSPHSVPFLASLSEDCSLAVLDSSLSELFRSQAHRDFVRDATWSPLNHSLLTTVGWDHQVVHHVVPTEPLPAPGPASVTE

Row | Structure (SMILES) | hepatocyte CLint at 1 μM [1] [µL/min/1e6 cells] | IC50 (human PRMT5/MEP50) [nM]
1 | [2H]C1([2H])CN(C[C@@H](O)CNC(=O)N2CCC[C@@H](N3CCCCC3=O)C2)C([2H])([2H])c2ccccc21 [Ex. 5, (R)—N—((S)-3-(3,4-dihydroisoquinolin-2(1H)-yl-1,1,4,4-d4)-2-hydroxypropyl)-2-oxo-[1,3′-bipiperidine]-1′-carboxamide] |  | 20
2 | [2H]C1([2H])c2ccccc2CCN1C[C@@H](O)CNC(=O)N1CCC[C@@H](N2CCCCC2=O)C1 [Ex. 4, (R)—N—((S)-3-(3,4-dihydroisoquinolin-2(1H)-yl-1,1-d2)-2-hydroxypropyl)-2-oxo-[1,3′-bipiperidine]-1′-carboxamide] | 2.5 | 31.6
3 | O=C(NC[C@H](O)CN1CCc2ccccc2C1)N1CCC[C@@H](c2ccccc2)C1 [CEx, reference compound] | 54.1 | 12.6
4 | Cc1ccnn([C@@H]2CCCN(C(=O)NC[C@H](O)CN3CCc4ccccc4C3)C2)c1=O [Ex. 7, (R)—N—((S)-3-(3,4-dihydroisoquinolin-2(1H)-yl)-2-hydroxypropyl)-3-(5-methyl-6-oxopyridazin-1(6H)-yl)piperidine-1-carboxamide] | 10.8 | 7.94

Second part, the compound after the results:

Row | hepatocyte CLint at 1 μM [1] [µL/min/1e6 cells] | IC50 (human PRMT5/MEP50) [nM] | Structure (SMILES)
5 | < 3 | 15.8 | O=C(NC[C@H](O)CN1CCc2ccccc2C1)N1CCC[C@@H](N2CCCCC2=O)C1 [Ex. 2, (R)—N—((S)-3-(3,4-dihydroisoquinolin-2(1H)-yl)-2-hydroxypropyl)-2-oxo-[1,3′-bipiperidine]-1′-carboxamide]
6 | 2.5 | 31.6 | CC1CCC(=O)N([C@@H]2CCCN(C(=O)NC[C@H](O)CN3CCc4ccccc4C3)C2)C1 (stereo partly drawn) [Ex. 3, (3′R)—N—((S)-3-(3,4-dihydroisoquinolin-2(1H)-yl)-2-hydroxypropyl)-5-methyl-2-oxo-[1,3′-bipiperidine]-1′-carboxamide]
7 | 1.7 | 50.1 | O=C(NC[C@H](O)CN1CCc2ccccc2C1)N1CCC[C@@H](N2CCCC2=O)C1 [Ex. 1, (R)—N—((S)-3-(3,4-dihydroisoquinolin-2(1H)-yl)-2-hydroxypropyl)-3-(2-oxopyrrolidin-1-yl)piperidine-1-carboxamide]
8 | < 6.4 | 12.6 | CN1CCCN([C@@H]2CCCN(C(=O)NC[C@H](O)CN3CCc4ccccc4C3)C2)C1=O [Ex. 8, (R)—N—((S)-3-(3,4-dihydroisoquinolin-2(1H)-yl)-2-hydroxypropyl)-3-(3-methyl-2-oxotetrahydropyrimidin-1(2H)-yl)piperidine-1-carboxamide]
9 | < 6 | 12.6 | CC1CCCN([C@@H]2CCCN(C(=O)NC[C@H](O)CN3CCc4ccccc4C3)C2)C1=O (stereo partly drawn) [Ex. 6, (3′R)—N—((S)-3-(3,4-dihydroisoquinolin-2(1H)-yl)-2-hydroxypropyl)-3-methyl-2-oxo-[1,3′-bipiperidine]-1′-carboxamide]
